Source: US20250188082A1, “Use of Hypoxanthine Compound In Preparation of Drug For Treating Pulmonary Fibrosis” (Sichuan Yiasuo Pharmaceutical Technology Co., Ltd., priority 2022, published 2025)

System: bleomycin-induced pulmonary fibrosis model
Experiment: Comparison with comparative drugs: bleomycin-induced model, hydroxyproline and TGF-β
Type: in vivo, C57BL/6 mice
Conditions: 120 mg/kg/d intragastric, twice every day, 14 days, from two weeks after model; Day 15

Row | Structure (SMILES) | Hydroxyproline in bronchoalveolar lavage fluids | Hydroxyproline in lung tissues | TGF-β in bronchoalveolar lavage fluids | TGF-β in lung tissues
1 | CC(C)n1cnc2c(ncn2C(C)C)c1=S [Hypoxanthine analogue D] | 1.94 ± 0.13 µg/mg | 2.15 ± 0.35 µg/mg | 6.42 ± 1.02 µg/L | 93.36 ± 8.51 µg/L
2 | CC(C)n1cnc2c(=O)n(C)cnc21 [Compound E-6] | 1.18 ± 0.15 µg/mg | 2.35 ± 0.24 µg/mg | 6.14 ± 0.85 µg/L | 63.56 ± 6.54 µg/L
3 | CC(C)n1cnc2c(=S)[nH]cnc21 [Compound E-4] | 1.14 ± 0.18 µg/mg | 1.98 ± 0.44 µg/mg | 6.84 ± 0.95 µg/L | 63.58 ± 2.95 µg/L
4 | CC(C)n1cnc2c(=O)[nH]cnc21 [Compound E-1] | 1.14 ± 0.16 µg/mg | 2.18 ± 0.32 µg/mg | 6.51 ± 0.24 µg/L | 63.95 ± 2.19 µg/L
5 | CC(C)n1cnc2[nH]cnc2c1=N [Compound E-8] | 1.06 ± 0.19 µg/mg | 2.03 ± 0.51 µg/mg | 6.51 ± 0.58 µg/L | 68.54 ± 2.25 µg/L
6 | CC(C)n1cnc2c(=N)[nH]cnc21 [Compound E-7] | 1.15 ± 0.18 µg/mg | 1.99 ± 0.25 µg/mg | 6.38 ± 0.95 µg/L | 68.25 ± 2.58 µg/L
7 | CC(C)n1cnc2c(ncn2C(C)C)c1=O [Compound E-3] | 1.03 ± 0.29 µg/mg | 2.15 ± 0.23 µg/mg | 6.35 ± 0.28 µg/L | 62.54 ± 1.28 µg/L
8 | CC(C)n1cnc2[nH]cnc2c1=O [Compound E-2] | 1.16 ± 0.28 µg/mg | 1.93 ± 0.24 µg/mg | 6.21 ± 0.24 µg/L | 66.56 ± 1.95 µg/L
9 | CC(C)n1cnc2[nH]cnc2c1=S [Compound E-5] | 1.17 ± 0.16 µg/mg | 2.15 ± 0.35 µg/mg | 6.51 ± 0.86 µg/L | 65.82 ± 3.54 µg/L
